Measurements published in ChEMBL document CHEMBL3046035, “Synthesis and biological evaluation of novel 4,5-dihydropyrazole derivatives as potent anticancer and antimicrobial agents” (Med Chem Res, 2013).
≈ marks a conversion by molar mass, not a printed value.

Columns and labels:
Enterococcus faecalis = assay: Antimicrobial activity against Enterococcus faecalis ATCC 14506 assessed as growth inhibition after 24 hr by broth microdilution method; assay type: functional; details: ATCC 14506, 24 h
A549 = assay: Anticancer activity against Homo sapiens (human) A549 cells assessed as inhibition of cell viability after 96 hr by MTT assay; assay type: functional, cell-based; details: A549, 96 h
Candida tropicalis = assay: Antimicrobial activity against Candida tropicalis ATCC 1369 assessed as growth inhibition after 24 hr by broth microdilution method; assay type: functional; details: ATCC 1369, 24 h
Escherichia coli = assay: Antimicrobial activity against Escherichia coli ATCC 10536 assessed as growth inhibition after 24 hr by broth microdilution method; assay type: functional; details: ATCC 10536, 24 h
Bacillus subtilis = assay: Antimicrobial activity against Bacillus subtilis ATCC 60511 assessed as growth inhibition after 24 hr by broth microdilution method; assay type: functional; details: ATCC 60511, 24 h
BGC-823 = assay: Anticancer activity against Homo sapiens (human) BGC823 cells assessed as inhibition of cell viability after 96 hr by MTT assay; assay type: functional, cell-based; details: BGC-823, 96 h
Staphylococcus aureus = assay: Antimicrobial activity against Staphylococcus aureus ATCC 11632 assessed as growth inhibition after 24 hr by broth microdilution method; assay type: functional; details: ATCC 11632, 24 h
Klebsiella pneumoniae = assay: Antimicrobial activity against Klebsiella pneumoniae ATCC 10031 assessed as growth inhibition after 24 hr by broth microdilution method; assay type: functional; details: ATCC 10031, 24 h
MCF7 = assay: Anticancer activity against Homo sapiens (human) MCF7 cells assessed as inhibition of cell viability after 96 hr by MTT assay; assay type: functional, cell-based; details: MCF7, 96 h
Aspergillus niger = assay: Antimicrobial activity against Aspergillus niger ATCC 6275 assessed as growth inhibition after 24 hr by broth microdilution method; assay type: functional; details: ATCC 6275, 24 h
Saccharomyces cerevisiae = assay: Antimicrobial activity against Saccharomyces cerevisiae ATCC 9763 assessed as growth inhibition after 24 hr by broth microdilution method; assay type: functional; details: ATCC 9763, 24 h
Pseudomonas aeruginosa = assay: Antimicrobial activity against Pseudomonas aeruginosa ATCC 10145 assessed as growth inhibition after 24 hr by broth microdilution method; assay type: functional; details: ATCC 10145, 24 h
HeLa = assay: Anticancer activity against Homo sapiens (human) HeLa cells assessed as inhibition of cell viability after 96 hr by MTT assay; assay type: functional, cell-based
A2780 = assay: Anticancer activity against Homo sapiens (human) A2780 cells assessed as inhibition of cell viability after 96 hr by MTT assay; assay type: functional, cell-based; details: A2780, 96 h

| MIC (Enterococcus faecalis) | IC50 (A549) | MIC (Candida tropicalis) | MIC (Escherichia coli) | MIC (Bacillus subtilis) | IC50 (BGC-823) | MIC (Staphylococcus aureus) | MIC (Klebsiella pneumoniae) | IC50 (MCF7) | MIC (Aspergillus niger) | MIC (Saccharomyces cerevisiae) | MIC (Pseudomonas aeruginosa) | IC50 (HeLa) | IC50 (A2780) | SMILES |
| --- | --- | --- | --- | --- | --- | --- | --- | --- | --- | --- | --- | --- | --- | --- |
| 125 µg/mL (≈ 284 µM) | 1.56 µM | 8 µg/mL (≈ 18.2 µM) | 8 µg/mL (≈ 18.2 µM) | 31.2 µg/mL (≈ 71 µM) | 1.41 µM | 31.2 µg/mL (≈ 71 µM) | 16 µg/mL (≈ 36.4 µM) | 1.69 µM | 8 µg/mL (≈ 18.2 µM) | 4 µg/mL (≈ 9.09 µM) | 62.5 µg/mL (≈ 142 µM) | 4.94 µM | 2.72 µM | Fc1cccc(F)c1C1CC(c2ccccc2)=NN1C1=NC(c2ccc(Cl)cc2)S1 (centres undefined) |
| 16 µg/mL (≈ 35.5 µM) | 3.26 µM | 125 µg/mL (≈ 277 µM) | 31.2 µg/mL (≈ 69.4 µM) | 62.5 µg/mL (≈ 139 µM) | 6.11 µM | 31.2 µg/mL (≈ 69.4 µM) | 31.2 µg/mL (≈ 69.4 µM) | 3.22 µM | 125 µg/mL (≈ 277 µM) | 8 µg/mL (≈ 17.8 µM) | 8 µg/mL (≈ 17.8 µM) | 6.62 µM | 4.35 µM | O=[N+]([O-])c1ccc(C2N=C(N3N=C(c4ccccc4)CC3c3c(F)cccc3F)S2)cc1 (centres undefined) |
| 8 µg/mL (≈ 19.1 µM) | 4.21 µM | 125 µg/mL (≈ 298 µM) | 8 µg/mL (≈ 19.1 µM) | 16 µg/mL (≈ 38.1 µM) | 3.22 µM | 16 µg/mL (≈ 38.1 µM) | 4 µg/mL (≈ 9.54 µM) | 3.23 µM | 62.5 µg/mL (≈ 149 µM) | 62.5 µg/mL (≈ 149 µM) | 4 µg/mL (≈ 9.54 µM) | 6.59 µM | 5.14 µM | Cc1ccc(C2N=C(N3N=C(c4ccccc4)CC3c3c(F)cccc3F)S2)cc1 (centres undefined) |
| 31.2 µg/mL (≈ 74.1 µM) | 3.44 µM | 16 µg/mL (≈ 38 µM) | 4 µg/mL (≈ 9.49 µM) | 31.2 µg/mL (≈ 74.1 µM) | 1.04 µM | 16 µg/mL (≈ 38 µM) | 16 µg/mL (≈ 38 µM) | 4.32 µM | 31.2 µg/mL (≈ 74.1 µM) | 16 µg/mL (≈ 38 µM) | 4 µg/mL (≈ 9.49 µM) | 6.23 µM | 3.14 µM | Oc1ccc(C2N=C(N3N=C(c4ccccc4)CC3c3c(F)cccc3F)S2)cc1 (centres undefined) |
| 16 µg/mL (≈ 36.7 µM) | 2.53 µM | 8 µg/mL (≈ 18.4 µM) | 16 µg/mL (≈ 36.7 µM) | 4 µg/mL (≈ 9.18 µM) | 1.23 µM | 16 µg/mL (≈ 36.7 µM) | 4 µg/mL (≈ 9.18 µM) | 2.04 µM | 8 µg/mL (≈ 18.4 µM) | 16 µg/mL (≈ 36.7 µM) | 4 µg/mL (≈ 9.18 µM) | 6.49 µM | 3.26 µM | COc1ccc(C2N=C(N3N=C(c4ccccc4)CC3c3c(F)cccc3F)S2)cc1 (centres undefined) |
| 8 µg/mL (≈ 19.2 µM) | 3.01 µM | 125 µg/mL (≈ 299 µM) | 31.2 µg/mL (≈ 74.9 µM) | 8 µg/mL (≈ 19.2 µM) | 2.01 µM | 31.2 µg/mL (≈ 74.9 µM) | 62.5 µg/mL (≈ 150 µM) | 2.23 µM | 125 µg/mL (≈ 299 µM) | 62.5 µg/mL (≈ 150 µM) | 62.5 µg/mL (≈ 150 µM) | 5.91 µM | 3.09 µM | Fc1cccc(F)c1C1CC(c2ccccc2)=NN1c1nc(-c2ccccc2)cs1 (centres undefined) |
| 31.2 µg/mL (≈ 74.7 µM) | 1.43 µM | 16 µg/mL (≈ 38.2 µM) | 16 µg/mL (≈ 38.2 µM) | 31.2 µg/mL (≈ 74.7 µM) | 1.11 µM | 31.2 µg/mL (≈ 74.7 µM) | 31.2 µg/mL (≈ 74.7 µM) | 2.45 µM | 16 µg/mL (≈ 38.2 µM) | 31.2 µg/mL (≈ 74.7 µM) | 16 µg/mL (≈ 38.2 µM) | 5.98 µM | 3.18 µM | Fc1cccc(F)c1C1CC(c2ccccc2)=NN1c1nc(-c2cccnc2)cs1 (centres undefined) |
| 8 µg/mL (≈ 17.7 µM) | 2.11 µM | 62.5 µg/mL (≈ 138 µM) | 16 µg/mL (≈ 35.4 µM) | 31.2 µg/mL (≈ 69.1 µM) | 1.43 µM | 62.5 µg/mL (≈ 138 µM) | 125 µg/mL (≈ 277 µM) | 2.76 µM | 62.5 µg/mL (≈ 138 µM) | 125 µg/mL (≈ 277 µM) | 31.2 µg/mL (≈ 69.1 µM) | 6.24 µM | 3.56 µM | Fc1cccc(F)c1C1CC(c2ccccc2)=NN1c1nc(-c2ccc(Cl)cc2)cs1 (centres undefined) |
| 8 µg/mL (≈ 18.5 µM) | 1.21 µM | 125 µg/mL (≈ 290 µM) | 8 µg/mL (≈ 18.5 µM) | 4 µg/mL (≈ 9.27 µM) | 1.2 µM | 4 µg/mL (≈ 9.27 µM) | 4 µg/mL (≈ 9.27 µM) | 2.5 µM | 62.5 µg/mL (≈ 145 µM) | 62.5 µg/mL (≈ 145 µM) | 8 µg/mL (≈ 18.5 µM) | 4.86 µM | 3.03 µM | Cc1ccc(-c2csc(N3N=C(c4ccccc4)CC3c3c(F)cccc3F)n2)cc1 (centres undefined) |
| 125 µg/mL (≈ 288 µM) | 1.57 µM | 125 µg/mL (≈ 288 µM) | 62.5 µg/mL (≈ 144 µM) | 31.2 µg/mL (≈ 72.1 µM) | 2.11 µM | 16 µg/mL (≈ 36.9 µM) | 16 µg/mL (≈ 36.9 µM) | 3.04 µM | 16 µg/mL (≈ 36.9 µM) | 31.2 µg/mL (≈ 72.1 µM) | 62.5 µg/mL (≈ 144 µM) | 7.09 µM | 2.45 µM | Oc1ccc(-c2csc(N3N=C(c4ccccc4)CC3c3c(F)cccc3F)n2)cc1 (centres undefined) |
| 16 µg/mL (≈ 34.6 µM) | 1.93 µM | 125 µg/mL (≈ 270 µM) | 125 µg/mL (≈ 270 µM) | 16 µg/mL (≈ 34.6 µM) | 1.05 µM | 16 µg/mL (≈ 34.6 µM) | 16 µg/mL (≈ 34.6 µM) | 2.09 µM | 16 µg/mL (≈ 34.6 µM) | 125 µg/mL (≈ 270 µM) | 31.2 µg/mL (≈ 67.6 µM) | 5.76 µM | 2.26 µM | O=[N+]([O-])c1ccc(-c2csc(N3N=C(c4ccccc4)CC3c3c(F)cccc3F)n2)cc1 (centres undefined) |
